How the values were obtained:
[1] = tested on: mild-to-moderate AD patients; test: Hamilton Depression Rating Scale (HAM-D), open-label Phase 2a clinical trial; type: in vivo, human; conditions: for Insomnia HAM-D Q5 Middle Insomnia, Mean ± SD / Insomnia HAM-D Q6 Late Insomnia, Mean ± SD / Insomnia HAM-D Q4 Initial Insomnia, Mean ± SD: score 0-2; for Insomnia HAM-D Q5 Middle Insomnia, Mean ± SD: baseline 1.5 ± 0.7; for Insomnia HAM-D Q6 Late Insomnia, Mean ± SD: baseline 1.6 ± 0.5; for Insomnia HAM-D Q4 Initial Insomnia, Mean ± SD: baseline 2 ± 0.0
Procedure: Efficacy data is presented through 31 week from the randomized (into different treatment regimens) open-label study with ANAVEX 2-73 oral daily dosing ranging from 10 mg to 50 mg. The data establish a method for treating insomnia, anxiety, or agitation in a subject. Efficacy extends to daily doses of up to about 100 mg of […], A1-41 or A19-144. Note is made of doses of A2-73, A1-41 or A19-144 of about 10 mg to about 30 mg, about 20 mg to about 40 mg, about 50 mg to about 80 mg. Oral dosing daily or every other day is contemplated.
This is consistent with Table 1 showing a reduction in insomnia, anxiety, and other symptoms.
The data of Table 1 is from an open-label, clinical trial, performed on a group of 30 mild-to-moderate AD patients (MMSE range 16-23, 40% female) on donepezil treatment, with ANAVEX 2-73.

[2] = tested on: insomnia, anxiety or agitation; test: Single-patient therapy Examples 1-10 (insomnia, anxiety, agitation); type: in vivo, human
Procedure: A person presents as suffering from maintenance insomnia for one year. They are started on oral A2-73 at 10 mg/day. […] They are currently maintained on 10 mg of A2-73 and is sleeping well. A person presents with anxiety of three years' duration. They are administered A2-73 at 20 mg oral per day every other day. […] They are maintained on this dosing schedule for 60 days. […] They are treated with 30 mg A2-73 oral daily for 30 days. […] They are currently maintained at that dosage and is not anxious. A person presents with MCI and reports maintenance insomnia for one year. They are started on oral A1-41 at 10 mg/day. […] They are currently maintained on 10 mg of A1-41 and is sleeping well. The patient is a person with diagnosed AD and reported anxiety of three years' duration. They are administered A19-144 at 20 mg oral per day every day for 90 days. […] They are chronically maintained on this dosing schedule. A person diagnosed with mild cognitive impairment presents as suffering from maintenance insomnia for one year. They are started on oral A2-73 at 50 mg/day. […] They are currently maintained on 50 mg of A2-73 daily and is sleeping well. A person diagnosed with Alzheimer's disease presents with insomnia/WASO and agitation and a systolic blood pressure of 145 mm Hg. They are started on oral A2-73 at 30 mg/day. […] They are also less agitated. Their results on all cognitive tests and HAM-D improve. They are currently maintained on 30 mg of A2-73 daily. A person diagnosed with Alzheimer's disease presents with insomnia/WASO and agitation. They are started on oral A2-73 at 100 mg/day. […] They are also less agitated. Their results on all cognitive tests and HAM-D improve. They are currently maintained on 100 mg of A2-73 every other day. A person diagnosed with Alzheimer's disease presents with insomnia/WASO and agitation. They are started on oral A19-144 at 50 mg/day. […] They are also less agitated. Their results on all cognitive tests and HAM-D improve. They are currently maintained on 50 mg of A19-144 daily. A person diagnosed with Alzheimer's disease presents with insomnia/WASO and agitation. They are started on oral A1-41 at 30 mg/day. […] They are also less agitated. Their results on all cognitive tests and HAM-D improve. They are currently maintained on 30 mg of A1-41 daily.

[3] = 30 mild-to-moderate AD patients on donepezil, open-label
[4] = 30 mild-to-moderate AD patients on donepezil, open-label, total 28 improvements
[5] = Example 7: oral 30 mg/day, 30 days
[6] = Example 8: oral 100 mg/day, 30 days

## CN(C)CC1CCOC1(c1ccccc1)c1ccccc1.Cl (stereo not drawn) [A2-73, tetrahydro-N,N-dimethyl-2,2-diphenyl-3-furanmethanamine hydrochloride]
[1]; [3]
  Scored Improvement Count, improved item of HAM-D: Agitation: 4
  Scored Improvement Count, improved item of HAM-D: Anxiety (psychic and somatic): 5
  Scored Improvement Count, improved item of HAM-D: Depressed: 4
  Scored Improvement Count, improved item of HAM-D: Guilt: 1
  Scored Improvement Count, improved item of HAM-D: Hypochondriasis: 2
  Scored Improvement Count, improved item of HAM-D: Insight: 3
  Scored Improvement Count, improved item of HAM-D: Insomnia: 8
  Scored Improvement Count, improved item of HAM-D: Loss of libido or other genital symptoms: 2
  Scored Improvement Count, improved item of HAM-D: Work and activities: 6
[1]; [4]
  Scored Improvement in [%], improved item of HAM-D: Agitation: 14%
  Scored Improvement in [%], improved item of HAM-D: Anxiety (psychic and somatic): 18%
  Scored Improvement in [%], improved item of HAM-D: Depressed: 14%
  Scored Improvement in [%], improved item of HAM-D: Guilt: 4%
  Scored Improvement in [%], improved item of HAM-D: Hypochondriasis: 7%
  Scored Improvement in [%], improved item of HAM-D: Insight: 11%
  Scored Improvement in [%], improved item of HAM-D: Insomnia: 29%
  Scored Improvement in [%], improved item of HAM-D: Loss of libido or other genital symptoms: 7%
  Scored Improvement in [%], improved item of HAM-D: Work and activities: 21%
[1]; Day 13
  Insomnia HAM-D Q5 Middle Insomnia, Mean ± SD: 1.0 ± 1.4
  Insomnia HAM-D Q6 Late Insomnia, Mean ± SD: 0.0 ± 0.0
  Insomnia HAM-D Q4 Initial Insomnia, Mean ± SD: 2 ± 0.0
[1]; Week 12/26
  Insomnia HAM-D Q5 Middle Insomnia, Mean ± SD: 0.0 ± 0.0
  Insomnia HAM-D Q6 Late Insomnia, Mean ± SD: 0.0 ± 0.0
  Insomnia HAM-D Q4 Initial Insomnia, Mean ± SD: 0.0 ± 0.0
[1]; after 31 weeks of dosing, FIG. 7
  Overall Hamilton Depression Rating Scale (HAM-D): reduction
[1]; baseline to week 12
  Changes in other behavioral items (HAM-D): not statistically significant
[1]; baseline to week 12, t=4.2, p<0.05, 30 AD patients, listed as ANAVEX 2-73, hydrochloride
  Subjective reports of insomnia (sleep items of HAM-D): marked insomnia improvements
[1]; sum over all improved HAM-D items
  Scored Improvement Count, improved items of HAM-D: Total: 28
[2]; Example 1: person, oral 10 mg/day, 30 days
  Sleep at follow up (maintenance insomnia): sleeping well
[2]; Example 2: person, 20 mg oral every other day, after two days of dosing
  Anxiety: Resolution of the anxiety
[2]; Example 3: person, 30 mg oral daily for 30 days
  Clinical evaluation of agitation: normal affect without agitation
[2]; Example 6: person with MCI, oral 50 mg/day, 30 days
  Sleep at follow up (maintenance insomnia): sleeping well
[2]; [5]
  Agitation at follow up: less agitated
  Results on all cognitive tests and HAM-D: improve
[2]; Example 7: oral 30 mg/day, 30 days, 145 mm Hg at presentation
  Systolic BP at follow up: 129 mm Hg
[2]; Example 7: person with AD, oral 30 mg/day, 30 days
  Sleep at follow up (insomnia/WASO): sleeping well through the night
[2]; [6]
  Agitation at follow up: less agitated
  Results on all cognitive tests and HAM-D: improve
[2]; Example 8: person with AD, oral 100 mg/day, 30 days
  Sleep at follow up (insomnia/WASO): sleeping well through the night
